Data: patent US20090179638A1, “ASSAY FOR IDENTIFYING INHIBITORS OF NEURONAL APOPTOTIC PATHWAYS” (AEGERA THERAPEUTICS INC., priority 2006, published 2009)

What was measured:
JNK [1] = experiment: NRAGE- and p75NTR-induced JNK activation in PC12rtTA cells (c-Jun phosphorylation, caspase-3 cleavage, immunoblot); type: cell-based; conditions: for c-Jun phosphorylation: AdNRG infected, 30 hours (FIG. 6C)
Description: FIGS. 2C and 2D are photographs of Western blots which illustrate that compound 1 inhibits NRAGE- and p75NTR-induced JNK activation. C, D: Compound 1 inhibits NRAGE- and p75NTR-induced JNK activation. PC12^rtTA cells were infected with AdNRG at 5 MOI (C), with Adp75 at 50 MOI (D), or with AdLacZ at an equivalent MOI for each experiment, as indicated. At time of infection, the cells were treated with increasing concentrations of compound 1, or with vehicle alone, as indicated. […] Experiments in Panel A-D were performed three times with essentially identical results.
Activation of JNK activity is necessary for the induction of p75NTR- or NRAGE-initiated caspase cleavage and cell death (Bhakar et al., 2003; Salehi et al., 2002). Therefore, the effect of compound 1 on the activity of JNK was assessed by analyzing alterations in the phosphorylation level of the JNK target, c-Jun, and the cleavage status of caspase-3. […] Thus, the suppression of JNK signaling and caspase-3 cleavage mediated by compound 1 occurred with a dose-dependency similar to the anti-apoptotic activity of compound 1.
Cell culture, infection, transfection and immunoblotting. Sympathetic neurons were maintained and deprived of NGF as previously described (Bamji et al., 1998; Ma et al., 1992). PC12^rtTA cells were maintained and infected as previously described (Majdan et al., 1997; Salehi et al., 2002); for NRAGE, […] doxycycline was added to all plates at time of infection. Wildtype and HSF1 nullizygous immortalized mouse embryonic fibroblasts (MEFs) were maintained in DMEM containing 10% fetal calf serum, 1 μM β-mercaptoethanol, 1% non-essential amino acids, 1% L-glutamine, 1% antimycotic solution and 1% sodium pyruvate (all from GibcoBRL). Sympathetic neuron survival was assessed using the MTS assay according to the manufacturer's instructions (Promega). Analysis of PC12 cell death was determined using a lactate dehydrogenase (LDH) assay (Roche) as per the manufacturer's instructions. Transfections using plasmids or RNAi were performed using Lipofectamine 2000. Immunoblotting was performed as previously described (Majdan et al., 1997; Salehi et al., 2002).

JNK [2] = experiment: Endogenous phosphorylation of GST-c-Jun in PC12rtTA cells; type: cell-based; conditions: for expression of the GST-c-Jun fusion construct: PC12rtTA cells
Description: FIGS. 7A, 7B and 7C are photographs of Western blots which illustrate that compound 1 analogues inhibit JNK activation and induce expression of HSP70. A: PC12^rtTA cells were transfected with RNAi directed against HSP70 or with control RNA and then 24 hours later were infected with 5 MOI of AdNRG or 50 MOI of the control virus AdLacZ. At time of infection, the cells were treated with 40 μM compound 2 or with a vehicle control, as indicated. After 30 hours, cells were lysed, normalized for protein levels, and analyzed for phosphorylated Jun, HSP70, HSP25 NRAGE and actin levels. B: PC12^rtTA cells were transfected with an expression construct driving GST-Jun. After 24 hours, cells were infected with 5 MOI of AdNRG or 50 MOI of the control virus AdLacZ or were left uninfected. After a further 24 hours, uninfected cells were left untreated or were exposed to 10 ng/ml TNF or 300 mM sorbitol for 15 minutes. Cells were then lysed, normalized for protein levels, and GST-jun was recovered by glutathione pullout and analyzed for phosphorylation using a antibody directed against c-Jun pSer63 by immunoblotting. Equivalent pullout of GST-Jun was confirmed by immunoblotting with an antibody directed against c-Jun and GST. C: PC12^rtTA cells were co-transfected with an expression construct driving GST-Jun and with RNAi directed against HSP70 or with control RNA, as indicated. After 24 hours, cells were infected with 5 MOI of AdNRG or 50 MOI of the control virus AdLacZ. At time of infection, the cells were treated with 40 μM compound 2 or with a vehicle control, as indicated. After 30 hours, cells were lysed, normalized for protein levels, and GST-jun was recovered by glutathione pullout and analyzed for phosphorylation using an antibody directed against c-Jun pSer63 by immunoblotting. Equivalent pullout of GST-Jun was confirmed by immunoblotting with an antibody directed against total Jun. Lysates levels of HSP70, HSP25, HSP40, NRAGE and actin was determined by immunoblot. […]
A causal link between HSP70 induction and JNK suppression, circumventing the problem of low-transfection efficiency of the PC12rtTA cells, was developed to assess JNK pathway activation specifically in the RNAi transfected subpopulation of PC12rtTA cells. […] We anticipated that the GST-c-Jun fusion protein would be readily recoverable from lysates and its phosphostatus would provide a sensitive read-out that reflects the level of JNK pathway activation in the subpopulation of cells which were transfected. […] GST-c-Jun was then recovered from lysates and its phosphostatus determined by immunoblotting. […] Thus, the phosphostatus of the GST-jun fusion protein provided a sensitive read-out that reflects the level of JNK pathway activation in transfected cells. […]

SMILES	c-Jun phosphorylation (JNK [1]; 40 μM)	ability to block GST-jun phosphorylation (JNK [2]; 40 μM, RNAi directed against HSP70)	AdNRG-induced phosphorylation of GST-c-Jun (JNK [2]; 40 μM, control siRNA)	expression of the GST-c-Jun fusion construct (JNK [2])	c-Jun phosphorylation and caspase-3 cleavage (JNK [1]; 10 μM, AdNRG infected cells)	decrease in c-Jun phosphorylation and caspase-3 cleavage (JNK [1]; 40 μM, AdNRG infected cells)	ability to block c-jun phosphorylation in cells transfected with HSP70 RNAi (JNK [1]; HSP70 siRNA transfected PC12rtTA cells)	JNK inhibitory effects (JNK [1]; extended (24 hour) incubation, 40 μM)	JNK inhibitory effects (JNK [1]; short term (1 hr) incubation, 40 μM)
NS(=O)(=O)c1nn2cc(-c3ccc(N4CCOCC4)cc3)nc2s1 [Compound 2]	reducing	almost completely lost	strongly inhibited	without altering					
NS(=O)(=O)c1nn2cc(-c3ccccc3)nc2s1 [Compound 1]	reducing			significantly increased	significant decrease	virtually complete	small but consistent attenuation	occurred	not short term
